Laboratory results reported in PubChem BioAssay (NCI).
Where “and” joins values, the source holds several entries; their conditions need not be identical. Equal values may be shown once.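 Where inhibition never reached the appropriate level, the endpoint shown equals the highest concentration tested. Otherwise, values were interpolated linearly from a five-concentration, 48-hour dose response in 96-well plates. The concentration for 50% growth inhibition is given as GI50. At the TGI there is no net growth.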

Legend:
Assay in all cases: NCI tumour cell line growth inhibition, 48 h
[1] = system: RPMI-8226 leukemia
[2] = system: HS 578T breast
[3] = system: NCI-H226 lung
[4] = system: DMS 273 small cell lung
[5] = system: HOP-18 NSCLC
[6] = system: M14 melanoma
[7] = system: SNB-75 CNS
[8] = system: MDA-MB-231 breast
[9] = system: K-562 leukemia
[10] = system: EKVX NSCLC
[11] = system: SK-MEL-5 melanoma
[12] = system: NCI/ADR-RES ovarian
[13] = system: SNB-78 CNS
[14] = system: HCT-116 colon
[15] = system: KM12 colon
[16] = system: OVCAR-4 ovarian
[17] = system: CCRF-CEM leukemia
[18] = system: T-47D breast
[19] = system: MDA-MB-435
[20] = system: IGROV1 ovarian
[21] = system: A498 renal
[22] = system: HOP-92 NSCLC
[23] = system: TK-10 renal
[24] = system: U251 CNS
[25] = system: HL-60(TB) leukemia
[26] = system: SR leukemia
[27] = system: NCI-H522 lung
[28] = system: NCI-H23 lung
[29] = system: COLO 205 colon
[30] = system: LXFL 529 NSCLC
[31] = system: SF-539 CNS
[32] = system: OVCAR-3 ovarian
[33] = system: HCC-2998 colon
[34] = system: SF-268 CNS
[35] = system: MALME-3M melanoma
[36] = system: SF-295 CNS
[37] = system: UACC-62 melanoma
[38] = system: OVCAR-8 ovarian
[39] = system: HT29 colon
[40] = system: 786-0 renal
[41] = system: KM20L2 colon
[42] = system: A549 NSCLC
[43] = system: SNB-19 CNS
[44] = system: HCT-15 colon
[45] = system: BT-549 breast
[46] = system: PC-3 prostate
[47] = system: UO-31 renal
[48] = system: LOX IMVI melanoma
[49] = system: M19-MEL melanoma
[50] = system: SN12C renal
[51] = system: RXF 393 renal
[52] = system: CAKI-1 renal
[53] = system: DU-145 prostate
[54] = system: SK-MEL-28 melanoma
[55] = system: MCF7 breast
[56] = system: DMS 114 small cell lung
[57] = system: DLD-1 colon
[58] = system: SW-620 colon
[59] = system: RXF-631 renal
[60] = system: SK-OV-3 ovarian
[61] = system: MDA-N
[62] = system: ACHN renal
[63] = system: XF 498 CNS
[64] = system: OVCAR-5 ovarian
[65] = system: NCI-H460 lung
[66] = system: HOP-62 NSCLC
[67] = system: UACC-257 melanoma
[68] = system: SK-MEL-2 melanoma
[69] = system: P388/ADR leukemia
[70] = system: P388 leukemia
[71] = system: MOLT-4 leukemia
[72] = system: SN12K1 renal

## Nc1ccc(S(=O)(=O)Nc2ccc(Nc3c4ccccc4nc4ccccc34)cc2)cc1
[1]
  TGI: 4.06 µM
[2]
  TGI: 54.7 µM
[3]
  TGI: 0.851 µM
[4]
  TGI: 3.08 µM
[5]
  TGI: 16.1 µM
[6]
  TGI: 17.5 µM
[7]
  TGI: 0.963 µM
[8]
  TGI: 22.1 µM
[9]
  TGI: 17 µM
[10]
  TGI: 14.7 µM
[11]
  TGI: 2 µM
[12]
  TGI: 19.8 µM
[13]
  TGI: 26.2 µM
[14]
  TGI: 15.6 µM
[15]
  TGI: 4.59 µM
[16]
  TGI: 17.1 µM
[17]
  TGI: > 4.64 µM
[18]
  TGI: 31.5 µM
[19]
  TGI: 53 µM
[20]
  TGI: 19.7 µM
[21]
  TGI: 1.14 µM
[22]
  TGI: 4.84 µM
[23]
  TGI: 9.55 µM
[24]
  TGI: 4.94 µM
[25]
  TGI: 0.183 µM
[26]
  TGI: 0.533 µM
[27]
  TGI: 3.95 µM
[28]
  TGI: 0.732 µM
[29]
  TGI: 14.9 µM
[30]
  TGI: 20.6 µM
[31]
  TGI: 0.362 µM
[32]
  TGI: 4.57 µM
[33]
  TGI: 8.2 µM
[34]
  TGI: 13.8 µM
[35]
  TGI: 10.8 µM
[36]
  TGI: 1.03 µM
[37]
  TGI: 3.66 µM
[38]
  TGI: 10 µM
[39]
  TGI: 5.4 µM
[40]
  TGI: 0.352 µM
[41]
  TGI: 10.6 µM
[42]
  TGI: 0.919 µM
[43]
  TGI: 9.54 µM
[44]
  TGI: 17.7 µM
[45]
  TGI: 0.981 µM
[46]
  TGI: 17.4 µM
[47]
  TGI: 4.24 µM
[48]
  TGI: 1.51 µM
[49]
  TGI: 21.1 µM
[50]
  TGI: 0.628 µM
[51]
  TGI: 13.7 µM
[52]
  TGI: 0.517 µM
[53]
  TGI: 0.0188 µM
[54]
  TGI: 20.8 µM
[55]
  TGI: 16 µM
[56]
  TGI: 1.9 µM
[57]
  TGI: 16.6 µM
[58]
  TGI: 14.3 µM
[59]
  TGI: 10.8 µM
[60]
  TGI: 0.501 µM
[61]
  TGI: 22.8 µM
[62]
  TGI: 0.149 µM
[63]
  TGI: 20.6 µM
[64]
  TGI: 12.9 µM
[65]
  TGI: 2.11 µM
[66]
  TGI: 0.0805 µM
[67]
  TGI: 20.2 µM
[68]
  TGI: 15.9 µM

## C[n+]1ccc(Nc2ccc(NC(=O)c3ccc(Nc4cc[n+](C)c5ccc([N+](=O)[O-])cc45)cc3[N+](=O)[O-])cc2)cc1
[1]
  TGI: > 100 µM
[3]
  TGI: 99.7 µM and > 100 µM
[4]
  TGI: > 100 µM
[5]
  TGI: 50.4 µM and 59.5 µM
[6]
  TGI: > 100 µM
[7]
  TGI: > 100 µM
[9]
  TGI: > 77.6 µM
[10]
  TGI: > 92.6 µM
[11]
  TGI: 70.4 µM and > 70.4 µM
[12]
  TGI: > 100 µM
[13]
  GI50: 42.3 µM and > 100 µM
  TGI: > 100 µM
[14]
  TGI: > 100 µM
[15]
  TGI: > 100 µM
[69]
  GI50: 32.9 µM and 12 µM
  TGI: > 54.2 µM and 17.2 µM
[16]
  TGI: > 100 µM
[17]
  TGI: > 100 µM
[20]
  TGI: > 100 µM
[21]
  TGI: > 94.1 µM
[22]
  TGI: 81.7 µM and > 77.1 µM
[23]
  TGI: > 100 µM
[24]
  TGI: > 84.6 µM
[25]
  GI50: 4.7 µM and 10.3 µM
  TGI: > 47.7 µM and 69.9 µM
[26]
  TGI: > 100 µM
[27]
  TGI: > 100 µM
[28]
  TGI: > 100 µM
[70]
  TGI: > 35.1 µM
[71]
  TGI: > 100 µM
[29]
  TGI: > 100 µM
[30]
  TGI: 50.8 µM
[31]
  TGI: 68.5 µM and > 66.7 µM
[32]
  TGI: 54.6 µM and 54.3 µM
[72]
  TGI: > 100 µM
[33]
  TGI: > 100 µM
[34]
  TGI: > 100 µM
[35]
  TGI: 61.2 µM and 53.9 µM
[36]
  TGI: 63.6 µM and 60 µM
[37]
  TGI: > 90.4 µM and 63.6 µM
[38]
  TGI: > 100 µM
[39]
  TGI: > 100 µM
[40]
  TGI: 77.4 µM
[41]
  TGI: > 100 µM
[42]
  TGI: > 100 µM
[43]
  TGI: > 100 µM
[44]
  TGI: > 100 µM
[47]
  TGI: 98.9 µM and > 79.4 µM
[48]
  TGI: > 100 µM
[49]
  TGI: 68 µM and 61 µM
[50]
  TGI: > 100 µM
[51]
  TGI: > 100 µM
[52]
  TGI: > 100 µM
[54]
  TGI: 74.1 µM and 62.2 µM
[55]
  GI50: 1.25 µM and 3.34 µM
  TGI: > 58.3 µM
[56]
  TGI: 27.2 µM and 41.5 µM
[57]
  TGI: > 100 µM
[58]
  TGI: > 100 µM
[60]
  TGI: > 100 µM
[62]
  TGI: > 100 µM
[63]
  TGI: 66.9 µM and > 63.2 µM
[64]
  TGI: > 100 µM
[65]
  TGI: > 100 µM
[66]
  TGI: 84.9 µM and > 100 µM
[67]
  TGI: > 100 µM
[68]
  TGI: > 100 µM
